Here are results for 3 compounds from US7582786B2, “Synthetic catalytic free radical scavengers useful as antioxidants for prevention and therapy of disease” (Eukarion Inc., priority 1996, dated 2009).

Data set [1] in a line: SOD activity, inhibition of cytochrome C reduction by xanthine plus xanthine oxidase (Example 1). In kind it is biochemical. The following applies: Example 1, cytochrome C reduction. The procedure:
The SOD activity of the compounds was determined by evaluating the inhibition of the reduction of cytochrome C produced by the oxygen free radical generating system, xanthine plus xanthine oxidase. Cytochrome C reduction is monitored spectrophotometrically at 550 nm according to the method described in Darr et al. (1987) Arch. Biochem. Biophys. 258: 351, incorporated herein by reference. The concentration of xanthine oxidase is adjusted such that it produces a rate of reduction of cytochrome C at 550 nm of 0.025 absorbance unit per minute. Under these conditions, the amount of SOD activity required to inhibit the rate of cytochrome C reduction by 50 percent (i.e., to a rate of 0.0125 absorbance unit per minute) is defined as one unit of activity. Salen-metal complexes are identified as antioxidants if they have at least 0.1 unit of activity at a concentration of 1 mM under these standard assay conditions.

A short description of data set [2]: Catalase activity, decomposition of hydrogen peroxide monitored at 240 nm (Example 1). The following applies: Example 1, H2O2 decomposition at 240 nm. It is filed as biochemical. On the procedure: Catalase activity was measured using a spectrophotometric method in which the decomposition of hydrogen peroxide is monitored at 240 nm according to the method of Aebi et al. (1984) Methods Enzymol. 105: 121, incorporated herein by reference. One unit of catalase activity is defined as the amount of enzyme (or salen-metal complex) required to decompose 1 μmole of hydrogen peroxide in one minute.

Another data set has as its system brain microsomes. Nature of the data set: Lipid peroxidation induced in brain microsomes by iron and ascorbate (MDA). From the text:
A series of salen-metal complexes were synthesized and their catalytic activities determined. […] FIGS. 24A-24H show structural formulae of further salen-metal compounds which were synthesized and evaluated.

`CC(C)(C)c1cc(Cl)cc2c1[O][Mn]([Cl])[O]c1c(cc(Cl)cc1C(C)(C)C)C=NC1CCCCC1N=C2` (centres unmarked) [Compound C11]: the “SOD Activity” value in data set [1] is recorded as 101 units/mM. For the same compound, in data set [2], the “Catalase Activity” value came out at 46 units/mM.
For the compound `COc1cc2c(c(C(C)(C)C)c1)[O][Mn]([Cl])[O]c1c(cc(OC)cc1C(C)(C)C)C=NC1CCCCC1N=C2` (centres unmarked) [Compound C12], the “SOD Activity” value in data set [1] turned out to be 4397 units/mM. Moreover, the “Catalase Activity” value in data set [2] was found to be 144 units/mM.
On to Vitamin E, for which the “inhibition of lipid peroxidation in brain microsomes” value in the data set with brain microsomes is “inhibition of lipid peroxidation”.
